Reference: PubChem BioAssay AID330 (DTP/NCI, 2004)
“And” between values parts separate entries of the source, which are not always exact repeats. Identical values can stand only once. Inconclusive results and toxic doses are left out. The calls were made as follows: active = survival T/C of 150% or more; inactive = T/C below 125% in these data.

Test system: P388 leukemia ip, CD2F1 mice, survival T/C
Experiment: NCI In Vivo Anticancer Drug Screen. Data for tumor model P388 Leukemia (intraperitoneal) in CD2F1 (CDF1) mice
Conditions: endpoint: median survival time, higher = longer survival
Summary of the method: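 Mice carrying the transplanted tumor received test compound or vehicle. Survival was recorded in each group, and the value is the treated-group measurement divided by that of the vehicle-treated control group.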

[1] = dose: 50.0 mg/kg/injection, schedule: Q01DX009 (ip), vehicle: saline with Tween-80
[2] = dose: 100.0 mg/kg/injection, schedule: Q01DX009 (ip), vehicle: saline with Tween-80
[3] = dose: 200.0 mg/kg/injection, schedule: Q01DX009 (ip), vehicle: saline with Tween-80
[4] = dose: 50.0 mg/kg/injection, schedule: Q01DX009 (ip), vehicle: Klucel (hydroxypropylcellulose) (HPC)
[5] = dose: 100.0 mg/kg/injection, schedule: Q01DX009 (ip), vehicle: Klucel (hydroxypropylcellulose) (HPC)
[6] = dose: 200.0 mg/kg/injection, schedule: Q01DX009 (ip), vehicle: Klucel (hydroxypropylcellulose) (HPC)

Measured: T/C

COC(=O)/C(=C/c1ccc(/C=C(/C(=O)O)c2ccc(OC)cc2)o1)c1ccc(OC)cc1
inactive: dose: 100.0 mg/kg/injection, schedule: Q04DX002 (ip), vehicle: saline with Tween-80 96 % of control | dose: 200.0 mg/kg/injection, schedule: Q04DX002 (ip), vehicle: saline with Tween-80 92 % of control | dose: 400.0 mg/kg/injection, schedule: Q04DX002 (ip), vehicle: saline with Tween-80 101 % of control

CC(=O)C1C(c2ccccc2)SC(c2ccccc2)CC1(C)O (stereo unspecified)
inactive: dose: 100.0 mg/kg/injection, schedule: Q04DX002 (ip), vehicle: Klucel (hydroxypropylcellulose) (HPC) 96 % of control | dose: 200.0 mg/kg/injection, schedule: Q04DX002 (ip), vehicle: Klucel (hydroxypropylcellulose) (HPC) 94 % of control | dose: 400.0 mg/kg/injection, schedule: Q04DX002 (ip), vehicle: Klucel (hydroxypropylcellulose) (HPC) 87 % of control

COC(=O)Nc1cn2nc(N)sc2n1
inactive: dose: 100.0 mg/kg/injection, schedule: Q01DX001 (ip), vehicle: saline with Tween-80 102 % of control | dose: 200.0 mg/kg/injection, schedule: Q01DX001 (ip), vehicle: saline with Tween-80 101 % of control | dose: 400.0 mg/kg/injection, schedule: Q01DX001 (ip), vehicle: saline with Tween-80 99 % of control

Cn1c(N)c(N=Nc2ccccc2Cl)c(=O)n(C)c1=O
inactive: [1] 104 % of control | [2] 99 % of control | [3] 95 % of control

C1=Nc2ccccc2OCCOc2ccccc2N=Cc2ccccc2NCCNc2ccccc21
inactive: dose: 100.0 mg/kg/injection, schedule: Q04DX003 (ip), vehicle: saline 97 % of control | dose: 200.0 mg/kg/injection, schedule: Q04DX003 (ip), vehicle: saline 100 % of control

O=[N+]1C=Cc2ccccc2C1=C1c2ccccc2C=CN1[O-]
inactive: dose: 25.0 mg/kg/injection, schedule: Q01DX005 (ip), vehicle: saline with Tween-80 101 % of control | dose: 50.0 mg/kg/injection, schedule: Q01DX005 (ip), vehicle: saline with Tween-80 97 % of control | dose: 100.0 mg/kg/injection, schedule: Q01DX005 (ip), vehicle: saline with Tween-80 103 % of control

C#CCSc1nnnn1-c1ccccc1
inactive: [1] 98 % of control | [2] 90 % of control | [3] 90 % of control

COc1ccccc1N=Cc1ccc(C=Nc2ccccc2OC)cc1
inactive: [4] 97 % of control | [5] 98 % of control | [6] 101 % of control and 88 % of control

C1CCC2(CC1)SCC1COCN12 (stereo unspecified)
inactive: dose: 100.0 mg/kg/injection, schedule: Q04DX003 (ip), vehicle: saline with Tween-80 103 % of control | dose: 200.0 mg/kg/injection, schedule: Q04DX003 (ip), vehicle: saline with Tween-80 97 % of control | dose: 400.0 mg/kg/injection, schedule: Q04DX003 (ip), vehicle: saline with Tween-80 103 % of control

CC(=O)NC(CC(C)C)C(=O)NC(CC(C)C)C(=O)NC(C=O)CCCN=C(N)N (stereo unspecified)
inactive: dose: 100.0 mg/kg/injection, schedule: Q01DX001 (ip), vehicle: saline 106 % of control | dose: 200.0 mg/kg/injection, schedule: Q01DX001 (ip), vehicle: saline 105 % of control

Cc1noc2nc(-c3ccccc3)cc(N3CCN(C)CC3)c12
inactive: dose: 12.5 mg/kg/injection, schedule: Q01DX005 (ip), vehicle: other 107 % of control | dose: 25.0 mg/kg/injection, schedule: Q01DX005 (ip), vehicle: other 97 % of control | dose: 50.0 mg/kg/injection, schedule: Q01DX005 (ip), vehicle: other 97 % of control | dose: 100.0 mg/kg/injection, schedule: Q01DX005 (ip), vehicle: other 101 % of control | dose: 200.0 mg/kg/injection, schedule: Q01DX005 (ip), vehicle: other 104 % of control

C[C-]=NCCCl.C[C-]=O.[C-]#[O+].[C-]#[O+].[C-]#[O+].[C-]#[O+].[Re]
inactive: dose: 12.5 mg/kg/injection, schedule: Q01DX005 (ip), vehicle: Klucel (hydroxypropylcellulose) (HPC) 102 % of control | dose: 25.0 mg/kg/injection, schedule: Q01DX005 (ip), vehicle: Klucel (hydroxypropylcellulose) (HPC) 89 % of control | dose: 50.0 mg/kg/injection, schedule: Q01DX005 (ip), vehicle: Klucel (hydroxypropylcellulose) (HPC) 93 % of control and 98 % of control

O=C(Nc1ccc(O)cc1)C(F)(F)F
inactive: [4] 93 % of control | [5] 95 % of control | [6] 90 % of control

CCn1c(=O)c2c(ncn2C)n(C)c1=O
inactive: dose: 6.25 mg/kg/injection, schedule: Q01DX009 (ip), vehicle: saline 100 % of control | dose: 12.5 mg/kg/injection, schedule: Q01DX009 (ip), vehicle: saline 101 % of control | dose: 25.0 mg/kg/injection, schedule: Q01DX009 (ip), vehicle: saline 100 % of control | dose: 50.0 mg/kg/injection, schedule: Q01DX009 (ip), vehicle: saline 100 % of control

COc1cc(/C=C/C(C)=N/NC(N)=S)cc(OC)c1OC
inactive: dose: 3.75 mg/kg/injection, schedule: Q01DX005 (ip), vehicle: Klucel (hydroxypropylcellulose) (HPC) 102 % of control | dose: 7.5 mg/kg/injection, schedule: Q01DX005 (ip), vehicle: Klucel (hydroxypropylcellulose) (HPC) 105 % of control | dose: 15.0 mg/kg/injection, schedule: Q01DX005 (ip), vehicle: Klucel (hydroxypropylcellulose) (HPC) 99 % of control | dose: 30.0 mg/kg/injection, schedule: Q01DX005 (ip), vehicle: Klucel (hydroxypropylcellulose) (HPC) 90 % of control and 94 % of control

CSC(=N\N=C\c1c(F)cccc1Cl)/N=C/N(C)C
inactive: dose: 60.0 mg/kg/injection, schedule: Q01DX005 (ip), vehicle: saline with Tween-80 95 % of control | dose: 120.0 mg/kg/injection, schedule: Q01DX005 (ip), vehicle: saline with Tween-80 101 % of control | dose: 240.0 mg/kg/injection, schedule: Q01DX005 (ip), vehicle: saline with Tween-80 103 % of control

CCCCCCCCCCCCSC(SCCCCCCCCCCCC)c1ccc(OCC(=O)O)cc1
inactive: dose: 25.0 mg/kg/injection, schedule: Q04DX003 (ip), vehicle: DMSO 96 % of control | dose: 50.0 mg/kg/injection, schedule: Q04DX003 (ip), vehicle: DMSO 91 % of control | dose: 100.0 mg/kg/injection, schedule: Q04DX003 (ip), vehicle: DMSO 94 % of control | dose: 200.0 mg/kg/injection, schedule: Q04DX003 (ip), vehicle: DMSO 91 % of control

COC(=O)C(C)NC(=O)C(Cc1c[nH]c2ccccc12)NC(=O)OC(C)(C)C (stereo unspecified)
inactive: dose: 12.5 mg/kg/injection, schedule: Q01DX009 (ip), vehicle: other 88 % of control | dose: 25.0 mg/kg/injection, schedule: Q01DX009 (ip), vehicle: other 89 % of control | dose: 50.0 mg/kg/injection, schedule: Q01DX009 (ip), vehicle: other 100 % of control | dose: 100.0 mg/kg/injection, schedule: Q01DX009 (ip), vehicle: other 101 % of control | dose: 200.0 mg/kg/injection, schedule: Q01DX009 (ip), vehicle: other 117 % of control

CN1CCC(O)(c2ccccc2)C(Br)C1 (stereo unspecified)
inactive: dose: 30.0 mg/kg/injection, schedule: Q01DX005 (ip), vehicle: saline 100 % of control and 106 % of control | dose: 60.0 mg/kg/injection, schedule: Q01DX005 (ip), vehicle: saline 100 % of control and 105 % of control and 110 % of control | dose: 120.0 mg/kg/injection, schedule: Q01DX005 (ip), vehicle: saline 100 % of control and 116 % of control

CC(C)C(N)P(=O)(O)O (stereo unspecified)
inactive: dose: 25.0 mg/kg/injection, schedule: Q01DX009 (ip), vehicle: suspension in saline 96 % of control | dose: 50.0 mg/kg/injection, schedule: Q01DX009 (ip), vehicle: suspension in saline 98 % of control | dose: 100.0 mg/kg/injection, schedule: Q01DX009 (ip), vehicle: suspension in saline 99 % of control | dose: 200.0 mg/kg/injection, schedule: Q01DX009 (ip), vehicle: suspension in saline 100 % of control
